Data published in patent US10487093B2, “Heterocyclic compounds, in particular 2-oxo-4,4,5,5,6,6,7,7-octahydrobenzoxazole derivatives, and their use as antibacterial compounds” (priority 2016, dated 2019).
≈ marks a conversion by molar mass, not a printed value. Like-named read-outs stand apart in the source and are kept apart here.

How the values were obtained:
Type in all cases: cell-based
[1] = system: Haemophilus influenzae ATCC 49247; assay: MIC, broth microdilution (CLSI) versus planktonic bacteria; details: ATCC49247; Haemophilus influenzae ATCC 49247; 16-20 h; mode of three independent experiments; read-out: MIC, Hi ATCC 49247
[2] = system: Pseudomonas aeruginosa ATCC 27853; assay: as above; details: ATCC27853; Pseudomonas aeruginosa ATCC 27853; 16-20 h; mode of three independent experiments; read-out: MIC, Pa ATCC 27853
[3] = system: Clostridium difficile ATCC 700057; assay: MIC against anaerobes, agar dilution (CLSI), reference strain; details: Clostridioides difficile, ATCC700057, 48 h, read-out: MIC, C. difficile ATCC 700057
[4] = system: Bacteroides fragilis ATCC 25285; assay: as above; details: ATCC25285, agar dilution, Brucella blood agar, 35° C., 48 h, anaerobic conditions, read-out: MIC, B. fragilis ATCC 25285
[5] = system: Bacteroides thetaiotaomicron ATCC 29741; assay: microbe, parasite or virus in culture; details: ATCC29741, agar dilution, Brucella blood agar, 35° C., 48 h, anaerobic conditions, read-out: MIC, B. thetaiotaomicron ATCC
[6] = system: strains of Clostridium perfringens; assay: microbe, parasite or virus in culture
[7] = system: strains of Finegoldia magna; assay: MIC against anaerobes, agar dilution (CLSI), clinical isolates; details: Finegoldia magna, read-out: MIC
[8] = system: strains of Parvimonas micra; assay: as above
[9] = system: strains of Peptoniphilus harei; assay: as above; details: Peptoniphilus harei, read-out: MIC
[10] = system: strains of Peptostreptococcus anaerobius; assay: as above
[11] = system: strains of Propionibacterium acnes; assay: as above; details: Cutibacterium acnes
[12] = system: strains of Bacteroides fragilis; assay: as above
[13] = system: strains of Bacteroides thetaiotaomicron; assay: microbe, parasite or virus in culture
[14] = system: strains of Prevotella bivia; assay: MIC against anaerobes, agar dilution (CLSI), clinical isolates
[15] = system: strains of Prevotella melaninogenica; assay: as above

SMILES: COc1ccc2ncc(=O)n(CCN[C@@H]3CC[C@@H]4[C@@H](C3)OC(=O)N4c3ccc4c(n3)NC(=O)CO4)c2c1 [Compound 21, 1-(2-{[(3aR,6R,7aR)-2-oxo-3-{3-oxo-2H,3H,4H-pyrido[3,2-b][1,4]oxazin-6-yl}-octahydro-1,3-benzoxazol-6-yl]amino}ethyl)-7-methoxy-1,2-dihydroquinoxalin-2-one]
- MIC [1]: < 1 µg/mL
- MIC [2]: < 1 µg/mL
- MIC [3]: < 1 µg/mL
- MIC [4]: < 1 µg/mL
- MIC [5]: < 1 µg/mL
- MIC ([6]; Clostridium perfringens strain 1): < 1 µg/mL
- MIC ([6]; Clostridium perfringens strain 2): < 1 µg/mL
- MIC ([6]; Clostridium perfringens strain 3): < 1 µg/mL
- MIC ([6]; Clostridium perfringens strain 4): < 1 µg/mL
- MIC ([6]; Clostridium perfringens strain 5): < 1 µg/mL
- MIC ([6]; Clostridium perfringens strain 6): < 1 µg/mL
- MIC ([6]; Clostridium perfringens strain 7): < 1 µg/mL
- MIC ([6]; Clostridium perfringens strain 8): < 1 µg/mL
- MIC ([6]; Clostridium perfringens strain 9): < 1 µg/mL
- MIC ([6]; Clostridium perfringens strain 10): < 1 µg/mL
- MIC ([6]; Clostridium perfringens strain 11): < 1 µg/mL
- MIC ([7]; Finegoldia magna strain 1): < 1 µg/mL
- MIC ([7]; Finegoldia magna strain 2): < 1 µg/mL
- MIC ([7]; Finegoldia magna strain 3): < 1 µg/mL
- MIC ([7]; Finegoldia magna strain 4): < 1 µg/mL
- MIC ([7]; Finegoldia magna strain 5): < 1 µg/mL
- MIC ([7]; Finegoldia magna strain 6): < 1 µg/mL
- MIC ([7]; Finegoldia magna strain 7): < 1 µg/mL
- MIC ([7]; Finegoldia magna strain 8): < 1 µg/mL
- MIC ([7]; Finegoldia magna strain 9): < 1 µg/mL
- MIC ([7]; Finegoldia magna strain 10): < 1 µg/mL
- MIC ([7]; Finegoldia magna strain 11): < 1 µg/mL
- MIC ([7]; Finegoldia magna strain 12): < 1 µg/mL
- MIC ([8]; Parvimonas micra strain 1): < 1 µg/mL
- MIC ([8]; Parvimonas micra strain 2): < 1 µg/mL
- MIC ([8]; Parvimonas micra strain 3): < 1 µg/mL
- MIC ([8]; Parvimonas micra strain 4): 1 to 4 µg/mL (≈ 1.97 to 7.9 µM)
- MIC ([8]; Parvimonas micra strain 5): < 1 µg/mL
- MIC ([8]; Parvimonas micra strain 6): < 1 µg/mL
- MIC ([8]; Parvimonas micra strain 7): < 1 µg/mL
- MIC ([8]; Parvimonas micra strain 8): < 1 µg/mL
- MIC ([8]; Parvimonas micra strain 9): < 1 µg/mL
- MIC ([8]; Parvimonas micra strain 10): < 1 µg/mL
- MIC ([8]; Parvimonas micra strain 11): < 1 µg/mL
- MIC ([8]; Parvimonas micra strain 12): < 1 µg/mL
- MIC ([9]; Peptoniphilus harei strain 1): < 1 µg/mL
- MIC ([9]; Peptoniphilus harei strain 2): < 1 µg/mL
- MIC ([9]; Peptoniphilus harei strain 3): < 1 µg/mL
- MIC ([9]; Peptoniphilus harei strain 4): < 1 µg/mL
- MIC ([9]; Peptoniphilus harei strain 5): < 1 µg/mL
- MIC ([9]; Peptoniphilus harei strain 6): < 1 µg/mL
- MIC ([9]; Peptoniphilus harei strain 7): < 1 µg/mL
- MIC ([9]; Peptoniphilus harei strain 8): < 1 µg/mL
- MIC ([9]; Peptoniphilus harei strain 9): < 1 µg/mL
- MIC ([9]; Peptoniphilus harei strain 10): < 1 µg/mL
- MIC ([9]; Peptoniphilus harei strain 11): < 1 µg/mL
- MIC ([9]; Peptoniphilus harei strain 12): < 1 µg/mL
- MIC ([10]; Peptostreptococcus anaerobius strain 1): < 1 µg/mL
- MIC ([10]; Peptostreptococcus anaerobius strain 2): < 1 µg/mL
- MIC ([10]; Peptostreptococcus anaerobius strain 3): < 1 µg/mL
- MIC ([10]; Peptostreptococcus anaerobius strain 4): < 1 µg/mL
- MIC ([10]; Peptostreptococcus anaerobius strain 5): < 1 µg/mL
- MIC ([10]; Peptostreptococcus anaerobius strain 6): < 1 µg/mL
- MIC ([10]; Peptostreptococcus anaerobius strain 7): < 1 µg/mL
- MIC ([10]; Peptostreptococcus anaerobius strain 8): < 1 µg/mL
- MIC ([10]; Peptostreptococcus anaerobius strain 9): < 1 µg/mL
- MIC ([10]; Peptostreptococcus anaerobius strain 10): < 1 µg/mL
- MIC ([11]; Propionibacterium acnes strain 1): < 1 µg/mL
- MIC ([11]; Propionibacterium acnes strain 2): < 1 µg/mL
- MIC ([11]; Propionibacterium acnes strain 3): < 1 µg/mL
- MIC ([11]; Propionibacterium acnes strain 4): < 1 µg/mL
- MIC ([11]; Propionibacterium acnes strain 5): < 1 µg/mL
- MIC ([11]; Propionibacterium acnes strain 6): < 1 µg/mL
- MIC ([11]; Propionibacterium acnes strain 7): < 1 µg/mL
- MIC ([11]; Propionibacterium acnes strain 8): < 1 µg/mL
- MIC ([11]; Propionibacterium acnes strain 9): < 1 µg/mL
- MIC ([11]; Propionibacterium acnes strain 10): < 1 µg/mL
- MIC ([11]; Propionibacterium acnes strain 11): < 1 µg/mL
- MIC ([11]; Propionibacterium acnes strain 12): < 1 µg/mL
- MIC ([12]; Bacteroides fragilis strain 1): 1 to 4 µg/mL (≈ 1.97 to 7.9 µM)
- MIC ([12]; Bacteroides fragilis strain 2): < 1 µg/mL
- MIC ([12]; Bacteroides fragilis strain 3): < 1 µg/mL
- MIC ([12]; Bacteroides fragilis strain 4): < 1 µg/mL
- MIC ([12]; Bacteroides fragilis strain 5): < 1 µg/mL
- MIC ([12]; Bacteroides fragilis strain 6): < 1 µg/mL
- MIC ([12]; Bacteroides fragilis strain 7): < 1 µg/mL
- MIC ([12]; Bacteroides fragilis strain 8): < 1 µg/mL
- MIC ([12]; Bacteroides fragilis strain 9): < 1 µg/mL
- MIC ([12]; Bacteroides fragilis strain 10): < 1 µg/mL
- MIC ([12]; Bacteroides fragilis strain 11): < 1 µg/mL
- MIC ([12]; Bacteroides fragilis strain 12): < 1 µg/mL
- MIC ([13]; Bacteroides thetaiotaomicron strain 1, read-out: MIC): < 1 µg/mL
- MIC ([13]; Bacteroides thetaiotaomicron strain 2, read-out: MIC): < 1 µg/mL
- MIC ([13]; Bacteroides thetaiotaomicron strain 3, read-out: MIC): < 1 µg/mL
- MIC ([13]; Bacteroides thetaiotaomicron strain 4, read-out: MIC): < 1 µg/mL
- MIC ([13]; Bacteroides thetaiotaomicron strain 5, read-out: MIC): < 1 µg/mL
- MIC ([13]; Bacteroides thetaiotaomicron strain 6, read-out: MIC): < 1 µg/mL
- MIC ([13]; Bacteroides thetaiotaomicron strain 7, read-out: MIC): < 1 µg/mL
- MIC ([13]; Bacteroides thetaiotaomicron strain 8, read-out: MIC): < 1 µg/mL
- MIC ([13]; Bacteroides thetaiotaomicron strain 9, read-out: MIC): < 1 µg/mL
- MIC ([13]; Bacteroides thetaiotaomicron strain 10, read-out: MIC): < 1 µg/mL
- MIC ([13]; Bacteroides thetaiotaomicron strain 11, read-out: MIC): 1 to 4 µg/mL (≈ 1.97 to 7.9 µM)
- MIC ([14]; Prevotella bivia strain 1): < 1 µg/mL
- MIC ([14]; Prevotella bivia strain 2): < 1 µg/mL
- MIC ([14]; Prevotella bivia strain 3): < 1 µg/mL
- MIC ([14]; Prevotella bivia strain 4): < 1 µg/mL
- MIC ([14]; Prevotella bivia strain 5): < 1 µg/mL
- MIC ([14]; Prevotella bivia strain 6): < 1 µg/mL
- MIC ([14]; Prevotella bivia strain 7): < 1 µg/mL
- MIC ([14]; Prevotella bivia strain 8): < 1 µg/mL
- MIC ([14]; Prevotella bivia strain 9): < 1 µg/mL
- MIC ([14]; Prevotella bivia strain 10): < 1 µg/mL
- MIC ([15]; Prevotella melaninogenica strain 1): < 1 µg/mL
- MIC ([15]; Prevotella melaninogenica strain 2): < 1 µg/mL
- MIC ([15]; Prevotella melaninogenica strain 3): < 1 µg/mL
- MIC ([15]; Prevotella melaninogenica strain 4): < 1 µg/mL
- MIC ([15]; Prevotella melaninogenica strain 5): < 1 µg/mL
- MIC ([15]; Prevotella melaninogenica strain 6): < 1 µg/mL
- MIC ([15]; Prevotella melaninogenica strain 7): < 1 µg/mL
- MIC ([15]; Prevotella melaninogenica strain 8): < 1 µg/mL
- MIC ([15]; Prevotella melaninogenica strain 9): < 1 µg/mL
- MIC ([15]; Prevotella melaninogenica strain 10): < 1 µg/mL
- MIC ([15]; Prevotella melaninogenica strain 11): < 1 µg/mL
